These results are taken from patent US8906931B1, “9-[4-(3-chloro-2-fluoro-phenylamino-7-methoxy-quinazoline-6-yloxy]-1,4-diaza-spiro[5.5]undecane-5-one dimaleate, use thereof as a medicament and method for the production thereof” (Boehringer Ingelheim International GmbH, priority 2011, dated 2014).

A short description of the data set: Water sorption test (DVS, hygroscopicity). Format: physicochemical. The conditions noted are these: humidity range of 10-90% r.h. Here is the method:
By low hygroscopicity is meant, within the scope of the present invention, that in sorption experiments on the compound of formula (I) a water uptake of less than 1% is observed in the humidity range of 10-90% investigated.
A DVS-1 made by Surface Measurement Systems (=SMS) is used to test the hygroscopic characteristics: the following humidity profiles are used: 10-90% r.h. in 10% steps, recording both a sorption and a desorption profile, typical weights: 10-20 mg

Each structure is given as a SMILES string.

In the case of `COc1cc2ncnc(Nc3cccc(Cl)c3F)c2cc1O[C@H]1CC[C@@]2(CC1)NCCNC2=O.O=C(O)/C=C\C(=O)O.O=C(O)/C=C\C(=O)O` [(I), (trans)-9-[4-(3-chloro-2-fluoro-phenylamino)-7-methoxy-quinazolin-6-yloxy]-1,4-diaza-spiro[5.5]undecan-5-one dimaleic acid compound], the “water uptake in sorption experiments” value is “less than 1%”.
